Experimental data: US11987588B2, “Modulators of the beta-3 adrenergic receptor useful for the treatment or prevention of heart failure and disorders related thereto” (Arena Pharmaceuticals, Inc., priority 2017, dated 2024)

target: Beta-3 Adrenergic Receptor (Homo sapiens (Human), UniProt P13945); experiment: Homogeneous Time-Resolved Fluorescence (HTRF) cAMP antagonist assay, IC50 determination; type: cell-based; details: CHO-K1 cells stably expressing recombinant receptor, isoproterenol at EC90
In short: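 Antagonist mode: isoproterenol at its predetermined EC90 added after compound to recombinant CHO-K1 cells in IBMX-containing PBS, 1 h, room temperature. Compounds tested as 5-fold, 10-point dilutions, top final typically 10 or 100 μM. HTRF signal converted to cAMP via standard curve, giving IC50.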

Beta-3 Adrenergic Receptor, sequence (P13945 whole entry, species assumed): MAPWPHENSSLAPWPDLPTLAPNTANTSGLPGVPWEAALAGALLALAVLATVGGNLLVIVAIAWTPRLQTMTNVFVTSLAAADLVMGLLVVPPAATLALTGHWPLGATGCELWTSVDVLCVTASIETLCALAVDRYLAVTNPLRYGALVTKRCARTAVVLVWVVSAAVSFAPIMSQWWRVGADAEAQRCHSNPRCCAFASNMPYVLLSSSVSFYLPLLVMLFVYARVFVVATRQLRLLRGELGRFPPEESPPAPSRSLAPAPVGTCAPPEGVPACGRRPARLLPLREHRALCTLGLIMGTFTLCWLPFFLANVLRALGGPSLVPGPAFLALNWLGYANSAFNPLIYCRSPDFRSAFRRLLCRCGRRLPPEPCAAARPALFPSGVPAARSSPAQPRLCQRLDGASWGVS

Row | SMILES | IC50
1 | CNS(=O)(=O)c1cccc(OC[C@@H](O)CN[C@H]2COC3(CCN(S(=O)(=O)c4cnc5ncn(C)c5c4)CC3)C2)c1 [Compound 523, 3-((S)-2-hydroxy-3-((R)-8-(1-methyl-1H-imidazo[4,5-b]pyridin-6-ylsulfonyl)-1-oxa-8-azaspiro[4.5]decan-3-ylamino)propoxy)-N-methylbenzenesulfonamide] | 273 nM
2 | CNS(=O)(=O)c1cccc(OC[C@@H](O)CNC2COC3(CCN(S(=O)(=O)c4cccc(-c5cnc(OC)nc5)c4)CC3)C2)c1 (stereo partly drawn) [Compound 108, 3-((2S)-2-hydroxy-3-(8-(3-(2-methoxypyrimidin-5-yl)phenylsulfonyl)-1-oxa-8-azaspiro[4.5]decan-3-ylamino)propoxy)-N-methylbenzenesulfonamide] | 13.4 nM
3 | CCOc1ccc(-c2ccc(CN)cc2)cc1S(=O)(=O)N1CCC2(CC1)CC(NC[C@H](O)COc1cccc(S(=O)(=O)NC)c1)CO2 (stereo partly drawn) [Compound 404, 3-((2S)-3-(8-(4′-(aminomethyl)-4-ethoxybiphenyl-3-ylsulfonyl)-1-oxa-8-azaspiro[4.5]decan-3-ylamino)-2-hydroxypropoxy)-N-methylbenzenesulfonamide] | 13 nM
4 | CNS(=O)(=O)c1cccc(OC[C@@H](O)CN[C@H]2COC3(CCN(S(=O)(=O)c4cnc5c(c4)[nH]c(=O)n5C)CC3)C2)c1 [Compound 518, 3-((S)-2-hydroxy-3-((R)-8-(3-methyl-2-oxo-2,3-dihydro-1H-imidazo[4,5-b]pyridin-6-ylsulfonyl)-1-oxa-8-azaspiro[4.5]decan-3-ylamino)propoxy)-N-methylbenzenesulfonamide] | 133 nM
5 | CCN1CCOc2ccc(S(=O)(=O)N3CCC4(CC3)C[C@H](NC[C@H](O)COc3cccc(S(=O)(=O)NC)c3)CO4)cc21 [Compound 350, 3-((S)-3-((S)-8-(4-ethyl-3,4-dihydro-2H-benzo[b][1,4]oxazin-6-ylsulfonyl)-1-oxa-8-azaspiro[4.5]decan-3-ylamino)-2-hydroxypropoxy)-N-methylbenzenesulfonamide] | 21.8 nM
6 | CNS(=O)(=O)c1cccc(OC[C@@H](O)CNC2COC3(CCN(S(=O)(=O)c4cnc(O)nc4)CC3)C2)c1 (stereo partly drawn) [Compound 425, 3-((2S)-2-hydroxy-3-(8-(2-hydroxypyrimidin-5-ylsulfonyl)-1-oxa-8-azaspiro[4.5]decan-3-ylamino)propoxy)-N-methylbenzenesulfonamide] | 216 nM
7 | CCNS(=O)(=O)c1cccc(OC[C@@H](O)CNC2COC3(CCN(S(=O)(=O)c4ccc5c(c4)NC(=O)CO5)CC3)C2)c1 (stereo partly drawn) [Compound 228, N-ethyl-3-((2S)-2-hydroxy-3-(8-(3-oxo-3,4-dihydro-2H-benzo[b][1,4]oxazin-6-ylsulfonyl)-1-oxa-8-azaspiro[4.5]decan-3-ylamino)propoxy)benzenesulfonamide] | 24.2 nM
8 | CNS(=O)(=O)c1cccc(OC[C@@H](O)CN[C@H]2COC3(CCN(S(=O)(=O)c4cc5c(nc4N)OCCN5C)CC3)C2)c1 [Compound 455, 3-((S)-3-((R)-8-(6-amino-1-methyl-2,3-dihydro-1H-pyrido[2,3-b][1,4]oxazin-7-ylsulfonyl)-1-oxa-8-azaspiro[4.5]decan-3-ylamino)-2-hydroxypropoxy)-N-methylbenzenesulfonamide] | 25.1 nM
9 | CNS(=O)(=O)c1cccc(OC[C@@H](O)CNC2COC3(CCN(S(=O)(=O)c4ccn(C)n4)CC3)C2)c1 (stereo partly drawn) [Compound 193, 3-((2S)-2-hydroxy-3-(8-(1-methyl-1H-pyrazol-3-ylsulfonyl)-1-oxa-8-azaspiro[4.5]decan-3-ylamino)propoxy)-N-methylbenzenesulfonamide] | 54.8 nM
10 | CCOc1nc2c(cc1S(=O)(=O)N1CCC3(CC1)CC(NC[C@H](O)COc1cccc(S(=O)(=O)NC)c1)CO3)N(C)CCO2 (stereo partly drawn) [Compound 401, 3-((2S)-3-(8-(6-ethoxy-1-methyl-2,3-dihydro-1H-pyrido[2,3-b][1,4]oxazin-7-ylsulfonyl)-1-oxa-8-azaspiro[4.5]decan-3-ylamino)-2-hydroxypropoxy)-N-methylbenzenesulfonamide] | 25.3 nM
11 | CC(O)CNS(=O)(=O)c1cccc(OC[C@@H](O)CNC2COC3(CCN(S(=O)(=O)c4ccc5ccccc5c4)CC3)C2)c1 (stereo partly drawn) [Compound 46, 3-((2S)-2-hydroxy-3-(8-(naphthalen-2-ylsulfonyl)-1-oxa-8-azaspiro[4.5]decan-3-ylamino)propoxy)-N-(2-hydroxypropyl)benzenesulfonamide] | 54.1 nM
12 | CN(C)S(=O)(=O)c1cccc(OC[C@@H](O)CNC2COC3(CCN(S(=O)(=O)c4cccc(Cl)c4)CC3)C2)c1 (stereo partly drawn) [Compound 246, 3-((2S)-3-(8-(3-chlorophenylsulfonyl)-1-oxa-8-azaspiro[4.5]decan-3-ylamino)-2-hydroxypropoxy)-N,N-dimethylbenzenesulfonamide] | 38.6 nM
13 | COCCCNS(=O)(=O)c1cccc(OC[C@@H](O)CNC2COC3(CCN(S(=O)(=O)c4ccc5ccccc5c4)CC3)C2)c1 (stereo partly drawn) [Compound 75, 3-((2S)-2-hydroxy-3-(8-(naphthalen-2-ylsulfonyl)-1-oxa-8-azaspiro[4.5]decan-3-ylamino)propoxy)-N-(3-methoxypropyl)benzenesulfonamide] | 39.8 nM
14 | C[C@@H](CO)NS(=O)(=O)c1cccc(OC[C@@H](O)CNC2COC3(CCN(S(=O)(=O)c4ccc5ccccc5c4)CC3)C2)c1 (stereo partly drawn) [Compound 48, 3-((2S)-2-hydroxy-3-(8-(naphthalen-2-ylsulfonyl)-1-oxa-8-azaspiro[4.5]decan-3-ylamino)propoxy)-N—((S)-1-hydroxypropan-2-yl)benzenesulfonamide] | 133 nM
15 | CCOc1ccc(-c2ccc(CNC(C)C)cc2)cc1S(=O)(=O)N1CCC2(CC1)C[C@@H](NC[C@H](O)COc1cccc(S(=O)(=O)NC)c1)CO2 [Compound 439, 3-((S)-3-((R)-8-(4-ethoxy-4′-((isopropylamino)methyl)biphenyl-3-ylsulfonyl)-1-oxa-8-azaspiro[4.5]decan-3-ylamino)-2-hydroxypropoxy)-N-methylbenzenesulfonamide] | 27.2 nM
16 | CNS(=O)(=O)c1cccc(OC[C@@H](O)CNC2COC3(CCN(S(=O)(=O)c4ccc(-c5cccnc5)cc4)CC3)C2)c1 (stereo partly drawn) [Compound 407, 3-((2S)-2-hydroxy-3-(8-(4-(pyridin-3-yl)phenylsulfonyl)-1-oxa-8-azaspiro[4.5]decan-3-ylamino)propoxy)-N-methylbenzenesulfonamide] | 23 nM
17 | CNS(=O)(=O)c1cccc(OC[C@@H](O)CNC2COC3(CCN(S(=O)(=O)c4cc(Cl)ccc4C)CC3)C2)c1 (stereo partly drawn) [Compound 240, 3-((2S)-3-(8-(5-chloro-2-methylphenylsulfonyl)-1-oxa-8-azaspiro[4.5]decan-3-ylamino)-2-hydroxypropoxy)-N-methylbenzenesulfonamide] | 28.4 nM
18 | CN(C)CCCNS(=O)(=O)c1cccc(OC[C@@H](O)CNC2COC3(CCN(S(=O)(=O)c4ccc5nsnc5c4)CC3)C2)c1 (stereo partly drawn) [Compound 312, 3-((2S)-3-(8-(benzo[c][1,2,5]thiadiazol-5-ylsulfonyl)-1-oxa-8-azaspiro[4.5]decan-3-ylamino)-2-hydroxypropoxy)-N-(3-(dimethylamino)propyl)benzenesulfonamide] | 3170 nM
19 | CNS(=O)(=O)c1cccc(OC[C@@H](O)CNC2COC3(CCN(S(=O)(=O)c4ccc(C)c(C)c4)CC3)C2)c1 (stereo partly drawn) [Compound 19, 3-((2S)-3-(8-(3,4-dimethylphenylsulfonyl)-1-oxa-8-azaspiro[4.5]decan-3-ylamino)-2-hydroxypropoxy)-N-methylbenzenesulfonamide] | 10 nM
20 | CCOc1ccc(-c2ccc(CN)cc2)cc1S(=O)(=O)N1CCC2(CC1)C[C@@H](NC[C@H](O)COc1cccc(S(N)(=O)=O)c1)CO2 [Compound 567, 3-((S)-3-((R)-8-(4′-(aminomethyl)-4-ethoxybiphenyl-3-ylsulfonyl)-1-oxa-8-azaspiro[4.5]decan-3-ylamino)-2-hydroxypropoxy)benzenesulfonamide] | 17.9 nM
21 | CNS(=O)(=O)c1cccc(OC[C@@H](O)CNC2COC3(CCN(S(=O)(=O)c4ccc(OC)c(Cl)c4)CC3)C2)c1 (stereo partly drawn) [Compound 207, 3-((2S)-3-(8-(3-chloro-4-methoxyphenylsulfonyl)-1-oxa-8-azaspiro[4.5]decan-3-ylamino)-2-hydroxypropoxy)-N-methylbenzenesulfonamide] | 8.79 nM
22 | Cc1ccc2c(O)c(S(=O)(=O)N3CCC4(CC3)C[C@@H](NC[C@H](O)COc3cccc(S(N)(=O)=O)c3)CO4)cnc2c1 [Compound 542, 3-((S)-2-hydroxy-3-((R)-8-(4-hydroxy-7-methylquinolin-3-ylsulfonyl)-1-oxa-8-azaspiro[4.5]decan-3-ylamino)propoxy)benzenesulfonamide] | 15.6 nM
23 | CNS(=O)(=O)c1cccc(OC[C@@H](O)CN[C@H]2COC3(CCN(c4nccc(OC)n4)CC3)C2)c1 [Compound 568, 3-((S)-2-hydroxy-3-((R)-8-(4-methoxypyrimidin-2-yl)-1-oxa-8-azaspiro[4.5]decan-3-ylamino)propoxy)-N-methylbenzenesulfonamide] | 411 nM
24 | CCn1cc(S(=O)(=O)N2CCC3(CC2)C[C@@H](NC[C@H](O)COc2cccc(S(N)(=O)=O)c2)CO3)c(=O)c2ccccc21 [Compound 550, 3-((S)-3-((R)-8-(1-ethyl-4-oxo-1,4-dihydroquinolin-3-ylsulfonyl)-1-oxa-8-azaspiro[4.5]decan-3-ylamino)-2-hydroxypropoxy)benzenesulfonamide] | 40.3 nM
25 | CNS(=O)(=O)c1cccc(OC[C@@H](O)CNC2COC3(CCN(S(=O)(=O)c4cccc(-c5ccc(-c6noc(C)n6)cc5)c4)CC3)C2)c1 (stereo partly drawn) [Compound 380, 3-((2S)-2-hydroxy-3-(8-(4′-(5-methyl-1,2,4-oxadiazol-3-yl)biphenyl-3-ylsulfonyl)-1-oxa-8-azaspiro[4.5]decan-3-ylamino)propoxy)-N-methylbenzenesulfonamide] | 102 nM
26 | CNS(=O)(=O)c1cccc(OC[C@@H](O)CNC2COC3(CCN(S(=O)(=O)c4ccc5cc(Cl)ccc5c4)CC3)C2)c1 (stereo partly drawn) [Compound 264, 3-((2S)-3-(8-(6-chloronaphthalen-2-ylsulfonyl)-1-oxa-8-azaspiro[4.5]decan-3-ylamino)-2-hydroxypropoxy)-N-methylbenzenesulfonamide] | 39 nM
